This assay has as its target βAR (β-adrenergic receptor), cardiac sarcolemmal membranes of wild-type FVB/N mice. The conditions noted are these: read-out: Kd for ICYP.

A word on the Kd: it is the free concentration of one partner at which half of the binding sites on the other are occupied at equilibrium, for simple one-to-one binding.

Take `CC(C)(C)NCC(O)COc1cccc2[nH]c(C#N)c([125I])c12` (stereo not shown) [ICYP, ^125 I-iodocyanopindolol]: the dissociation constant Kd was approximately 0.02 nM.

For the origin of these results see US6218597A, “Transgenic model and treatment for heart disease” (University Technology Corporation, priority 1998, dated 2001).
